Results on one compound are retold here after US20250222028A1, “ENGINEERED IMMUNE CELL PLATFORM” (Cancer Research Technology Limited, priority 2022, published 2025).

The structures appear in SMILES notation.

For one experiment, the system named is K562 target cells. The experiment can be described thus: LDH killing assay, NK-92 cells with K562 target cells. It is filed as cell-based, human. The conditions noted are these: 10 μM, vs carrier control. As for the experimental part:
FIG. 5. L-type Cav channel agonists increase GLI1 expression in the human NK cell line NK-92 and promote specific tumour cell killing. (A) NK-92 cells were stimulated using an anti-NKp46 mAb for 4 hours in the presence of 10 μM FPL 64176, and GLI1 expression was assessed using qRT-PCR. Data is n=4 independent experiments. (B) NK-92 cells were stimulated using an anti-NKp46 mAb for 4 hours in the presence of 100 μM Bay K8644, and GLI1 expression was assessed using qRT-PCR. Data is n=3 independent experiments. […]
FIG. 7. […] Killing of K562 tumour cells was assessed after 24 h by LDH killing assay. […]
In order to establish whether an increase in GLI1 expression is correlated with an increase in NK-92 cell effector function, NK-92 were co-cultured with K562 myelogenous leukaemia cells in the presence of 10 μM FPL 64176 or carrier control, at the effector:target ratios indicated in FIG. 5C. Cell killing was assessed using the LDH assay, as previously described.
To determine if the increased specific cell killing seen in Gorlin patients can be achieved by engineering cells to express a gain-of-function mutation resulting in increased Gli1 signalling, NK-92 cells were engineered to stably express the I756T GOF mutation in Cav1.4. […] Killing of K562 tumour cells was assessed after 24 h by LDH killing assay. […]

The subject of a further experiment is Gli1. The experiment can be described thus: Gli1 expression by qRT-PCR in anti-CD3ε-stimulated murine CD8+ CTLs. It is filed as cell-based. The method, then: FIG. 1. L-type Cav channel agonists increase Gli1 expression and enhance specific cell killing by murine CD8+ CTLs. CD8^+ T cells were isolated from the spleen and inguinal lymph nodes of Rag2^−/− OT-I mice, and CTLs were generated. (A) Cells were restimulated on day 9/10 for 3 hours using plate-bound anti-CD3ε in the presence of indicated concentrations of FPL 64176 or carrier control. RNA was extracted and Gli1 expression was assessed by qRT-PCR. Data is n=3 independent experiments. us=unstimulated cells. (B) An LDH cytotoxicity assay was performed using OT-I CTLs. On day 7, CTLs were co-cultured with Ova peptide-pulsed EL-4 cells in the presence of 10 μM FPL 64176 (squares) or carrier control (circles). Data is n=4 independent experiments. (C) Updated experiment of (A). Data is now n=4 independent experiments. Data is normalised to Tbp as a reference gene. 0h=unstimulated cells. (D) Same data as (B) represented differently. […] Error bars indicate SD. p values were calculated using an unpaired two-tailed Student's t test (C) or a two-way ANOVA (B/D). * indicates p<0.05, ** indicates p<0.01, **** indicates p<0.0001.
FIG. 2. FPL 64176 but not (R)-Baclofen nor Nefiracetam enhance Gli1 expression in murine CD8+ CTLs. Naïve CD8^+ T cells were isolated from the spleens of OT-I Rag2^−/− mice and CTLs were generated. Cells were restimulated using an anti-CD3ε mAb in the presence indicated concentrations of (A) FPL 64176, (B) (R)-Baclofen or (C) Nefiracetam (or carrier control). CTLs were pre-incubated with the relevant pharmacological agents for 40-50 mins prior to stimulation (ensuring sufficient time for the agents, e.g., FPL 64176, to enter the cell. Gli1 expression was assessed by qRT-PCR. Data is n=2 independent experiments. Error bars indicate SD.
To investigate a potential role for L-type Cav channel agonists in modulating CD8+ CTL activation and effector function, CD8+ T cells were isolated from the spleen and inguinal lymph nodes of Rag2−/− OT-I mice and CTLs were generated. […] OT-I mice bear a transgene encoding for a TCR that recognises a chicken ovalbumin (Ova) peptide fragment. Rag2−/− OT-I mice facilitate the isolation of naïve CD8+ T cell populations. Plates were coated using 2.5 μg/mL anti-CD3ε mAb and CD8+ CTLs were stimulated for 3 hours via the TCR in the presence of 5 or 10 μM FPL 64176, an L-type Cav channel agonist, or carrier control. Note that CD8+ CTLs were pre-incubated with FPL 64176 or carrier control for 40-50 mins before stimulation. Gli1 expression was assessed using qRT-PCR.
In brief, naïve CD8+ T cells were isolated from the spleen and inguinal lymph nodes of C57BL/6 wildtype mice and CTLs were generated. […] RNA was extracted from cells and Gli1 expression was assessed by qRT-PCR. […]
In general terms: Real-time PCR tracks product formation cycle by cycle.

Consider `COC(=O)c1c(C)[nH]c(C)c1C(=O)c1ccccc1Cc1ccccc1` [FPL 64176], for which the “target cell killing by NK-92 cells” value with K562 target cells is on record as “enhanced”. The “Gli1 expression following TCR activation” value in the experiment with Gli1 (anti-CD3ε restimulation 6 hours, indicated concentrations, vs carrier control (FIG. 2)) is “successfully enhances”. For the same compound, in the experiment with Gli1 (anti-CD3ε stimulation 3 hours, 5 or 10 μM, pre-incubation 40-50 mins, vs carrier control), the Gli1 expression result is given as “dose-dependent increase”.
